Data published in ChEMBL document CHEMBL5329213, “Discovery of a novel GPR35 agonist with high and equipotent species potency for oral treatment of IBD” (Bioorg Med Chem, 2023).
The source made the active and inactive calls. No cut-off for these calls is given here.

Tests used:
[1] = biological target: T1, G-protein coupled receptor 35 (Mus musculus, UniProt Q9ES90); assay: Agonist activity at mouse GPR35 expressed in HEK293 cells co-expressing Galpha16 assessed as increase in calcium mobilization by Fluo-4 AM dye based fluorescence assay; assay type: functional, cell-based
[2] = Agonist activity at rat GPR35 by beta-arrestin recruitment assay
[3] = biological target: T2, G-protein coupled receptor 35 (Homo sapiens, UniProt Q9HC97); assay: Agonist activity at human GPR35 expressed in HEK293 cells co-expressing Galpha16 assessed as increase in calcium mobilization by Fluo-4 AM dye based fluorescence assay; assay type: functional, cell-based
[4] = biological target: G-protein coupled receptor 35 (Mus musculus) (UniProt Q9ES90); assay: Agonist activity at mouse GPR35 expressed in HEK293 cells co-expressing Galpha16 assessed as increase in calcium mobilization by Fluo-4 AM dye based fluorescence assay relative to-iodoxamide; assay type: functional, cell-based; conditions: filed as agonist
[5] = biological target: T1, G-protein coupled receptor 35; assay: Agonist activity at mouse GPR35 by beta-arrestin recruitment assay; assay type: functional
Mus musculus [6] = assay: Anti-colitis activity against DSS-induced ulcerative colitis C57BL/6 mouse model assessed as reduction in colitis symptoms by measuring decrease in stool thinning at 200 mg/kg, po qd for 7 days administered via gavage; assay type: functional, organism-based; conditions: time 7.0 day
Mus musculus [7] = assay: Anti-colitis activity against DSS-induced ulcerative colitis C57BL/6 mouse model assessed as reduction in colitis symptoms by measuring decrease in body weight loss at 200 mg/kg, po qd for 7 days administered via gavage; assay type: functional, organism-based; conditions: time 7.0 day
Mus musculus [8] = assay: Anti-colitis activity against DSS-induced ulcerative colitis C57BL/6 mouse model assessed as reduction in colitis symptoms by measuring decrease in rectal bleeding at 200 mg/kg, po qd for 7 days administered via gavage; assay type: functional, organism-based; conditions: time 7.0 day
[9] = Agonist activity at rat GPR35 expressed in HEK293 cells co-expressing Galpha16 assessed as increase in calcium mobilization by Fluo-4 AM dye based fluorescence assay
[10] = biological target: T2, G-protein coupled receptor 35; assay: Agonist activity at human GPR35 by beta-arrestin recruitment assay; assay type: functional
[11] = Stability of the compound in mouse plasma; assay type: ADME, cell-free
[12] = Stability of the compound in plasma of DSS-induced ulcerative colitis C57BL/6 mouse model at 20 mg/kg, po qd for 7 days administered via gavage; assay type: ADME, organism-based; conditions: in vivo, 168 h, time 7 day

T1 sequence (Q9ES90 whole entry): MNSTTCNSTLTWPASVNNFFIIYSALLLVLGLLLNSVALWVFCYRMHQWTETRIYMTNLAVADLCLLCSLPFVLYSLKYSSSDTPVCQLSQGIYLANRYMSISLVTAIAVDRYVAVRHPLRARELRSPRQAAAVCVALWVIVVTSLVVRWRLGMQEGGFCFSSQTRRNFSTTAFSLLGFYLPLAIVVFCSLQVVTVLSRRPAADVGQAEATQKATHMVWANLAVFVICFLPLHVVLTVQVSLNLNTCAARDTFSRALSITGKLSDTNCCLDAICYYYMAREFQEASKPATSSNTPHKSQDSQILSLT
G-protein coupled receptor 35 (Mus musculus), sequence (Q9ES90 whole entry): as above
T2 sequence (Q9HC97 whole entry): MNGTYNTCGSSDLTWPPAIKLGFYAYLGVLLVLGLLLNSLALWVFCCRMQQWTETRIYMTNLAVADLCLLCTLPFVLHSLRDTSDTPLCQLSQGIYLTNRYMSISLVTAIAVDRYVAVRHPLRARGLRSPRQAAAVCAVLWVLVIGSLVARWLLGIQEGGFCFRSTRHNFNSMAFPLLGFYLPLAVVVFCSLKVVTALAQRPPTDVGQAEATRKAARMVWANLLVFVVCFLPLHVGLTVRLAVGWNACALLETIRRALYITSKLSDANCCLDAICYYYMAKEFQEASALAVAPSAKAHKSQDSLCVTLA

Compound `CN(C)c1c(NC(=O)C(=O)O)cc(C#N)cc1NC(=O)C(=O)O` has an EC50 [1] of 9160 nM.
Work on `CCCCc1cc2c(=O)cc(C(=O)O)[nH]c2c2c(=O)cc(C(=O)O)[nH]c12` [BUFROLIN] yielded an EC50 [2] of 10 nM.
For `O=C(O)c1cc2ccccc2c(Cc2c(O)c(C(=O)O)cc3ccccc23)c1O` [PAMOIC ACID], the EC50 [2] was over 100000 nM.
For `O=C(O)C(=O)Nc1cc(C(=O)O)cc(NC(=O)C(=O)O)c1Cl`, the EC50 [3] was 125 nM, the EC50 [1] was 5300 nM and the Emax [4] was 75%.
In the case of `CCOC(=O)C(=O)Nc1cc(Br)cc(NC(=O)C(=O)OCC)c1Cl`, the EC50 [1] is reported as 42.5 nM.
For `COC(=O)C(=O)Nc1cc(C(F)(F)F)cc(NC(=O)C(=O)OC)c1Cl`, the EC50 [1] was 27.2 nM.
Work on `O=C(Nc1cc(C(F)(F)F)cc(NC(=O)C(=O)OC2CC2)c1Cl)C(=O)OC1CC1` yielded an EC50 [3] of 75 nM, an EC50 [1] of 119 nM and an Emax [4] of 86%.
Work on `O=C(Nc1cc(C(F)(F)F)cc(NC(=O)C(=O)OC2CCCC2)c1Cl)C(=O)OC1CCCC1` yielded an EC50 [3] of 1040 nM, an EC50 [1] of 126 nM and an Emax [4] of 91%.
With `CCOC(=O)C(=O)Nc1cccc(NC(=O)C(=O)OCC)c1Cl` the EC50 [1] was 3260 nM.
`N#Cc1cc(NC(=O)C(=O)O)cc(NC(=O)C(=O)O)c1` showed an EC50 [1] of 376 nM.
`O=C(O)C(=O)Nc1cccc(NC(=O)C(=O)O)c1Cl` showed an EC50 [1] of 3640 nM.
`CCOC(=O)C(=O)Nc1cc(C(=O)OCC(C)C)cc(NC(=O)C(=O)OCC)c1Cl` gave an EC50 [1] of 20.9 nM.
With `CCCOc1ccccc1-c1nc2[nH]nnc2c(=O)[nH]1` [ZAPRINAST] the EC50 [5] was 1 µM and the EC50 [2] was 100 nM.
With `Nc1ccc(O)c(C(=O)O)c1` the Activity (Mus musculus [6]) was “Active”, the Activity (Mus musculus [7]) was “Active” and the Activity (Mus musculus [8]) was “Active”.
With `Cc1cc(NC(=O)C(=O)O)c(Cl)c(NC(=O)C(=O)O)c1` the EC50 [1] was 69.1 nM.
Work on `O=C1N/C(=N/c2ccccc2F)S/C1=C\c1ccc(C(=O)O)cc1` yielded an EC50 [2] of 8000 nM.
For `N#Cc1cc(NC(=O)C(=O)O)c(Cl)c(NC(=O)C(=O)O)c1` [LODOXAMIDE], the EC50 [3] was 41.1 nM, the EC50 [1] was 422 nM and the EC50 [9] was 21.5 nM. It also gave an EC50 [10] of 0.004 µM and an EC50 [2] of 13 nM.
In the case of `O=C(O)C(=O)Nc1cccc(NC(=O)C(=O)O)c1`, the EC50 [3] is reported as 4250 nM, the EC50 [1] is reported as 8060 nM and the Emax [4] is reported as 105%.
In the case of `CCOC(=O)C(=O)Nc1cc(C(F)(F)F)cc(NC(=O)C(=O)OCC)c1Cl`, the EC50 [1] is reported as 63.7 nM, the Stability [11] is reported as “Unstable” and the Stability [12] is reported as “Unstable”.
`O=C(Nc1cc(C(F)(F)F)cc(NC(=O)C(=O)OC2CCCCC2)c1Cl)C(=O)OC1CCCCC1` gave an EC50 [1] of 61 nM.
Work on `COc1c(NC(=O)C(=O)O)cc(C#N)cc1NC(=O)C(=O)O` yielded an EC50 [1] of 3110 nM.
`COc1ccc(C(=O)Nc2cc(Br)cc3c(=O)cc(C(=O)O)oc23)cc1` showed an EC50 [2] of 1400 nM.
Compound `O=C(O)c1cc(=O)c2c(OCC(O)COc3cccc4oc(C(=O)O)cc(=O)c34)cccc2o1` [CROMOLYN] has an EC50 [10] of 8 µM, an EC50 [5] of 58 µM and an EC50 [2] of 4000 nM.
For `O=C(O)C(=O)Nc1cc(NC(=O)C(=O)O)cc(C(F)(F)F)c1`, the EC50 [1] was 12.4 nM.
Work on `Cc1c(NC(=O)C(=O)O)cc(C(=O)O)cc1NC(=O)C(=O)O` yielded an EC50 [1] of over 10000 nM.
Compound `CCOC(=O)C(=O)Nc1cc(C#N)cc(NC(=O)C(=O)OCC)c1Cl` [LODOXAMIDE ETHYL] has an EC50 [3] of 29.2 nM, an EC50 [1] of 263 nM and an Emax [4] of 139%.
Work on `O=C(O)C(=O)Nc1cc(Br)cc(NC(=O)C(=O)O)c1Cl` yielded an EC50 [3] of 25.8 nM, an EC50 [1] of 28.1 nM and an EC50 [9] of 34.6 nM. The Emax [4] was 106%.
With `O=C(O)C(=O)Nc1cc(C(F)(F)F)cc(NC(=O)C(=O)O)c1Cl` the EC50 [1] was 55.8 nM.
